What follows are molecules tested on Glucose-6-Phosphatase-System (assay: Glucose-6-phosphatase enzyme test in liver microsomes (phosphate released from glucose-6-phosphate)). Conditions: Inhibitorkonzentration 100 µM; Glucose-6-Phosphat 1 mMol/l, 0,1 mg Mikrosomen-Fraktion, pH 7,0, 20 min, room temperature.
Assay type: biochemical, Wistar-Ratten
Procedure: Die Wirkung der erfindungsgemäßen Verbindungen auf das Glucose-6-Phosphatase-System wurde in einem Enzymtest in Lebermikrosomen untersucht.
Für die Präparation der die Glucose-6-Phosphatase enthaltenden Mikrosomen-Fraktion wurden frische Leber-Organe von männlichen Wistar-Ratten verwendet und wie in der Literatur beschrieben aufgearbeitet [Canfield, W. K. Und Arion, W.J., J. Biol. Chem. 263, 7458-7460, (1988)]. Diese Mikrosomen-Fraktion kann bei -70°C mindestens 2 Monate lang ohne signifikamten Aktivitätsverlust aufbewahrt werden.
Der Nachweis der Glucose-6-Phosphatase-Aktivität wurde wie in der Literatur angegeben (Arion, W. J. in Methods Enzymol. 174, Academic Press 1989, Seite 58 - 67) durch Bestimmung des aus Glucose-6-Phosphat freigesetzten Phosphats durchgeführt. 0,1 ml Testansatz enthielten Glucose-6-Phosphat (1mMol/l), die Testsubstanz, 0,1 mg Mikrosomen-Fraktion und 100 mMol/l HEPES-Puffer (4-(2-Hydroxyethyl)piperazin-1-ethansulfonsäure), pH 7,0. Die Reaktion wurde durch Zugabe des Enzyms gestartet. Nach Ablauf von 20 Minuten bei Raumtemperatur wurde die Reaktion durch Zugabe von 0,2 ml Phosphat-Reagens gestoppt. Die Probe wurde 30 Minuten lang bei 37 °C inkubiert, und die Absorbtion (A) der blauen Farbe anschließend bei 570 nm gemessen. Die inhibitorische Wirksamkeit der Testsubstanz ergab sich durch Vergleich mit einer Kontroll-Reaktion, die keine Testsubstanz enthielt nach der Formel Prozent Hemmung =(A(Kontrolle) - A(Testsubstanz))/(A(Kontrolle))x 100 [formula]
Die hemmende Wirkung der Testsubstanz (Verbindungen 1 - 43) wurde bei den in der nachfolgenden Tabelle 1 angegebenen Konzentrationen der Testsubstanz ermittelt.

Point of comparison: `O=C(Nc1ccc(-c2ccco2)c(C(=O)O)c1)c1ccc2ccccc2c1` [Beispiel 14], “% Hemmung” value 57%. Against it:
- COc1ccc2cc(-c3ccc(NC(=O)C=Cc4ccccc4)cc3C(=O)O)ccc2c1 [Beispiel 1] — lower, 53%
- COc1ccc2cc(-c3ccc(NC(=O)Cc4ccc(OC)c(OC)c4)cc3C(=O)O)ccc2c1 [Beispiel 2] — higher, 60%
- COc1ccc2cc(-c3ccc(NC(=O)c4cccs4)cc3C(=O)O)ccc2c1 [Beispiel 3] — higher, 93%
- O=C(Nc1ccc(CCCCCl)c(C(=O)O)c1)Nc1ccc(Cl)c(C(F)(F)F)c1 [Beispiel 4] — higher, 66%
- COc1ccc2cc(-c3ccc(NC(=O)C4CC4)cc3C(=O)O)ccc2c1 [Beispiel 5] — lower, 51%
- COc1ccc2cc(-c3ccc(NC(=O)c4ccco4)cc3C(=O)O)ccc2c1 [Beispiel 6] — higher, 61%
- COc1ccc(OC)c(CC(=O)Nc2ccc(-c3ccc4cc(OC)ccc4c3)c(C(=O)O)c2)c1 [Beispiel 7] — higher, 63%
- COc1ccc2cc(-c3ccc(NC(=O)c4cccc(F)c4)cc3C(=O)O)ccc2c1 [Beispiel 8] — higher, 77%
- COc1ccc2cc(-c3ccc(NC(=O)CCC4CCCC4)cc3C(=O)O)ccc2c1 [Beispiel 9] — higher, 64%
- O=C(CCCc1ccc(Cl)cc1)Nc1ccc(-c2ccc(Cl)s2)c(C(=O)O)c1 [Beispiel 10] — higher, 62%
- O=C(C=Cc1ccccc1)Nc1ccc(-c2ccc(Cl)s2)c(C(=O)O)c1 [Beispiel 11] — the same, 57%
- O=C(Nc1ccc(-c2ccc(Cl)s2)c(C(=O)O)c1)c1ccc2ccccc2c1 [Beispiel 12] — higher, 71%
- O=C(Nc1ccc(-c2cccs2)c(C(=O)O)c1)c1ccc2ccccc2c1 [Beispiel 13] — lower, 53%
- O=C(Nc1ccc(-c2ccco2)c(C(=O)O)c1)c1cnc2ccccc2n1 [Beispiel 15] — higher, 63%
- CC(C)(C)c1ccc(-c2ccc(NC(=O)COc3ccccc3)cc2C(=O)O)cc1 [Beispiel 16] — lower, 50%
- CC(C)(C)c1ccc(-c2ccc(NC(=O)C3CCCC3)cc2C(=O)O)cc1 [Beispiel 17] — lower, 53%

Same assay, conditions: Inhibitorkonzentration 12,5 µM; Glucose-6-Phosphat 1 mMol/l, 0,1 mg Mikrosomen-Fraktion, pH 7,0, 20 min, room temperature; 12.5 µM

Point of comparison: `Cc1ccc(C#Cc2ccc(NC(=O)c3cc(C(F)(F)F)cc(C(F)(F)F)c3)cc2C(=O)O)cc1` [Beispiel 33], “% Hemmung” value 77%. Against it:
- COc1cccc(C(=O)Nc2ccc(C#Cc3ccccc3)c(C(=O)O)c2)c1 [Beispiel 18] — higher, 98%
- N#Cc1cccc(C(=O)Nc2ccc(C#Cc3ccccc3)c(C(=O)O)c2)c1 [Beispiel 19] — higher, 98%
- O=C(Nc1ccc(C#Cc2ccccc2)c(C(=O)O)c1)c1ccccc1Cl [Beispiel 20] — higher, 100%
- O=C(Nc1ccc(C#Cc2ccccc2)c(C(=O)O)c1)c1ccc(Cl)cc1Cl [Beispiel 21] — higher, 84%
- O=C(Nc1ccc(C#Cc2ccccc2)c(C(=O)O)c1)c1cccc(F)c1 [Beispiel 22] — higher, 100%
- O=C(Nc1ccc(C#Cc2ccccc2)c(C(=O)O)c1)c1cccc(C(F)(F)F)c1 [Beispiel 23] — lower, 63%
- O=C(O)c1cc(NC(=O)C2CCCCC2)ccc1C#Cc1ccccc1 [Beispiel 24] — lower, 58%
- O=C(Nc1ccc(C#Cc2ccccc2)c(C(=O)O)c1)c1cccc([N+](=O)[O-])c1 [Beispiel 25] — lower, 51%
- O=C(O)c1cc(NC(=O)c2c(F)c(F)c(F)c(F)c2F)ccc1C#Cc1ccccc1 [Beispiel 26] — lower, 54%
- CC(C)(C)CC(=O)Nc1ccc(C#Cc2ccccc2)c(C(=O)O)c1 [Beispiel 27] — lower, 58%
- CC(C)(O)C(=O)Nc1ccc(C#Cc2ccccc2)c(C(=O)O)c1 [Beispiel 28] — lower, 60%
- Cc1ccc(C#Cc2ccc(NC(=O)c3cnc4ccccc4n3)cc2C(=O)O)cc1 [Beispiel 29] — lower, 73%
- COc1ccc(C(=O)Nc2ccc(C#Cc3ccc(C)cc3)c(C(=O)O)c2)c(OC)c1 [Beispiel 30] — lower, 52%
- COc1cc(OC)cc(C(=O)Nc2ccc(C#Cc3ccc(C)cc3)c(C(=O)O)c2)c1 [Beispiel 31] — lower, 64%
- COc1ccc(C(=O)Nc2ccc(C#Cc3ccc(C)cc3)c(C(=O)O)c2)cc1OC [Beispiel 32] — lower, 61%
- Cc1ccc(C#Cc2ccc(NC(=O)c3cccc(C(F)(F)F)c3)cc2C(=O)O)cc1 [Beispiel 34] — lower, 50%
- Cc1ccc(C#Cc2ccc(NC(=O)CCC3CCCC3)cc2C(=O)O)cc1 [Beispiel 35] — lower, 76%
- COc1cccc(C(=O)Nc2ccc(C#Cc3ccc(C)cc3)c(C(=O)O)c2)c1 [Beispiel 36] — higher, 78%
- Cc1ccc(C#Cc2ccc(NC(=O)c3cccc(Cl)c3)cc2C(=O)O)cc1 [Beispiel 37] — lower, 55%
- Cc1ccc(C#Cc2ccc(NC(=O)c3cccc([N+](=O)[O-])c3)cc2C(=O)O)cc1 [Beispiel 38] — lower, 50%
- Cc1ccc(C#Cc2ccc(NS(=O)(=O)c3ccc([N+](=O)[O-])cc3)cc2C(=O)O)cc1 [Beispiel 39] — lower, 62%
- Cc1ccc(C#Cc2ccc(NC(=O)C(C)C)cc2C(=O)O)cc1 [Beispiel 40] — higher, 94%
- Cc1ccc(C#Cc2ccc(NC(=O)C(F)(F)C(F)(F)C(F)(F)F)cc2C(=O)O)cc1 [Beispiel 41] — lower, 71%
- Cc1ccc(C#Cc2ccc(NC(=O)c3cccc4ccccc34)cc2C(=O)O)cc1 [Beispiel 42] — lower, 60%
- Cc1ccc(C#Cc2ccc(NC(=O)c3ccccc3O)cc2C(=O)O)cc1 [Beispiel 43] — lower, 55%

Source: patent publication EP0816329A1, “Benzoic acid derivatives, process for their preparation and their use for the treatment of diseases” (HOECHST AKTIENGESELLSCHAFT, priority 1996, dated 1998)
